Data: patent US20260132129A1 (Genesis Therapeutics, Inc., priority 2022, published 2026)

Biological target: T1, PI3Kα H1047R (T47D cells) (Homo sapiens, UniProt P42336, H1047R)
T1 construct: endogenous in cells; host or cells: T47D cells
Assay: PI3Kα cellular assay: pAKT HTRF in T47D cells after EGF stimulation
Assay type: cell-based
Conditions: for T47D pAKT S473 HTRF IC50 (H1047R): T47D (H1047R) selectivity over SKBR3 (WT): selectivity of T47D (H1047R) over SKBR3 (WT) pAKT IC50; for IC50: T47D cells (PI3Kα H1047R), pAKT S473 HTRF, EGF stimulation
Outline: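 T47D cells (PIK3CA H1047R) serum-starved 16 h, then treated 1 h at 37 °C with compound (10,000 nM top, 3-fold steps to 0.5 nM). After 10 min stimulation with 20 ng/mL EGF, cells were lysed and pAKT measured by HTRF.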

T1 sequence (P42336 whole entry H1047R): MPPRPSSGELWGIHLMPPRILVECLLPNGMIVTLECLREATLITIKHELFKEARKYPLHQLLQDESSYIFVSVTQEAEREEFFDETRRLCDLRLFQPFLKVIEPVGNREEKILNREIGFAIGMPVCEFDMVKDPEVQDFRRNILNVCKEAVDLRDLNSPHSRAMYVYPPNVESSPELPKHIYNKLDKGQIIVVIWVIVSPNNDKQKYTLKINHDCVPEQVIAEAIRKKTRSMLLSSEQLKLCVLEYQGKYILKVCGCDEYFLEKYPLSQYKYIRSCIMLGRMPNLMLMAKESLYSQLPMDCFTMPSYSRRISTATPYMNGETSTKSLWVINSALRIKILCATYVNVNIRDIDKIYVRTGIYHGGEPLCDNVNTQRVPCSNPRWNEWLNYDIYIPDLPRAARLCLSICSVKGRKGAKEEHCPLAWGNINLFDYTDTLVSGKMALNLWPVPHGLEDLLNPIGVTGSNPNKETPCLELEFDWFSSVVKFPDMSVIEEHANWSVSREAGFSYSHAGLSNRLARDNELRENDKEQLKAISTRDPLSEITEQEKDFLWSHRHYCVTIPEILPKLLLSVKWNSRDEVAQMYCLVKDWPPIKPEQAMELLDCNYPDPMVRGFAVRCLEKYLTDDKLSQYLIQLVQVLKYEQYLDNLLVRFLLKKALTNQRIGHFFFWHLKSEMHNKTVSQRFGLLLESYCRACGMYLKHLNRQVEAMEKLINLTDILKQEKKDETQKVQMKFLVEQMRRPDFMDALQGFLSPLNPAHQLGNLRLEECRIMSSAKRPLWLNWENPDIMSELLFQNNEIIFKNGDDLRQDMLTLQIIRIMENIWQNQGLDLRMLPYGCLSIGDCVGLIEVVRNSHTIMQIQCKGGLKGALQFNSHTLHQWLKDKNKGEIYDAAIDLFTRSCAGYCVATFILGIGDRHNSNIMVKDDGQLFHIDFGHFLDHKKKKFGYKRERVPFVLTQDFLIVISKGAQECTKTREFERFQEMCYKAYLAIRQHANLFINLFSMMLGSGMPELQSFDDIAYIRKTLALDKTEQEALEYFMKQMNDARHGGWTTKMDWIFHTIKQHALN
T1 sequence (P27986 whole entry partner): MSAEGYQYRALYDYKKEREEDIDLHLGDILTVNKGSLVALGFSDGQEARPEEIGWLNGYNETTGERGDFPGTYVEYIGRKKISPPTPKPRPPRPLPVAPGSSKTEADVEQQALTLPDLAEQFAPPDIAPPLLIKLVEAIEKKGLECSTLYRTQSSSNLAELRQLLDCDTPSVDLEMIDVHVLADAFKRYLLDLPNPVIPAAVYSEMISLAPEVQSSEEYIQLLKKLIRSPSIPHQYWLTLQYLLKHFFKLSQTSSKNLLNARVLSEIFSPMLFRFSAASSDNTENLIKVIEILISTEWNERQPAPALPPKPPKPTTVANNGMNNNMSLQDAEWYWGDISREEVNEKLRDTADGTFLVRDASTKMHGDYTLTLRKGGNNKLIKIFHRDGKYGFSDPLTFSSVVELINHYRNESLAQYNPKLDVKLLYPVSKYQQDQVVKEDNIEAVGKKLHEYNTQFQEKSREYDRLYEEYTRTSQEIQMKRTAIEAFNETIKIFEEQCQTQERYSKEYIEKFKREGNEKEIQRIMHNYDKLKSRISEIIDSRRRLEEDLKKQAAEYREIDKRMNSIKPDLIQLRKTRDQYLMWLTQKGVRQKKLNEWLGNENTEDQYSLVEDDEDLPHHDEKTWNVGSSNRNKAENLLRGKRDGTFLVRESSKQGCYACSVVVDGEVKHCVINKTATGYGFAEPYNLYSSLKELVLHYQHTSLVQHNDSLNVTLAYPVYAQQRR

Row | T47D pAKT S473 HTRF IC50 (H1047R): T47D (H1047R) selectivity over SKBR3 (WT) | IC50 | SMILES
1 | A (A denotes >20-fold) | 100 to 500 nM | Cc1cc(C(C)Nc2ccccc2C(=O)O)c2nc(N3C[C@@H](C)O[C@@H](C)C3)c(C)c(=O)n2c1 (some centres unmarked) [Compound 915]
2 | C (C denotes ≤5-fold) |  | Cc1cc([C@H](C)Nc2ccccc2C(=O)O)c2nc(N3CC4(CCNCC4)C3)c(C)c(=O)n2c1 [Compound 917]
3 | C (C denotes ≤5-fold) | > 2000 nM | Cc1cc(C(C)Nc2cccc3oc(=O)[nH]c23)c2nc(N3CCOCC3)cc(=O)n2c1 (centres unmarked) [Compound 918]
4 | C (C denotes ≤5-fold) | > 2000 nM | CC(Nc1ccccc1C(=O)O)c1cc(C(F)(F)F)cn2c(=O)cc(N3Cc4ccccc4C3)nc12 (centres unmarked) [Compound 921]
5 | A (A denotes >20-fold) | < 100 nM | CC(Nc1ccccc1C(=O)O)c1cc(C(F)(F)F)cn2c(=O)cc(N3Cc4ccccc4C3)nc12 (centres unmarked) [Compound 922]
6 | B (B denotes 20-fold≥value>5-fold) |  | Cc1cc([C@@H](C)Nc2ccccc2C(=O)O)c2nc(-c3ccc4c(C)n[nH]c4c3)cc(=O)n2c1 [Compound 923]
7 | A (A denotes >20-fold) | 100 to 500 nM | Cc1cc([C@@H](C)Nc2ccccc2C(=O)O)c2nc(C3C[C@@H](C)O[C@@H](C)C3)cc(=O)n2c1 (some centres unmarked) [Compound 924]
8 | B (B denotes 20-fold≥value>5-fold) | 500 to 2000 nM | Cc1cc([C@H](C)Nc2ccccc2C(=O)O)c2nc(C3C[C@@H](C)O[C@@H](C)C3)cc(=O)n2c1 (some centres unmarked) [Compound 925]
9 | C (C denotes ≤5-fold) | > 2000 nM | Cc1cc(C(C)Nc2ccccc2C(=O)C(F)(F)F)c2nc(N3Cc4ccccc4C3)c(C)c(=O)n2c1 (centres unmarked) [Compound 926]
10 | C (C denotes ≤5-fold) | > 2000 nM | Cc1cc(C(C)CNc2ccccc2C(=O)O)c2nc(N3CCOCC3)cc(=O)n2c1 (centres unmarked) [Compound 929]
11 | C (C denotes ≤5-fold) | > 2000 nM | Cc1cc(C(C)Nc2cccc(CO)c2C(=O)O)c2nc(-c3ccc4c(c3)c(C)nn4C)cc(=O)n2c1 (centres unmarked) [Compound 933]
12 | C (C denotes ≤5-fold) |  | Cc1cc([C@H](C)Nc2ccccc2C(=O)O)c2nc(N3C[C@H]4C[C@@H](C5CCN(S(=O)(=O)N(C)C)CC5)C[C@H]4C3)cc(=O)n2c1 [Compound 935]
13 | C (C denotes ≤5-fold) | > 2000 nM | C=CC(=O)Nc1cc(C(C)Nc2ccccc2C(=O)O)c2nc(N3Cc4ccccc4C3)cc(=O)n2c1 (centres unmarked) [Compound 939]
14 | C (C denotes ≤5-fold) | > 2000 nM | Cc1cc([C@@H](C)Nc2cccc(CO)c2C(=O)O)c2nc(-c3ccc4c(c3)c(C)nn4C)cc(=O)n2c1 [Compound 940]
15 | C (C denotes ≤5-fold) | > 2000 nM | Cc1cc([C@H](C)Nc2cccc(CO)c2C(=O)O)c2nc(-c3ccc4c(c3)c(C)nn4C)cc(=O)n2c1 [Compound 941]
16 | A (A denotes >20-fold) | 100 to 500 nM | Cc1cc([C@H](C)Nc2cccnc2-c2ccnnc2)c2nc(N3Cc4ccccc4C3)cc(=O)n2c1 [Compound 943]
17 | A (A denotes >20-fold) | < 100 nM | Cc1cc([C@@H](C)Nc2ccccc2C(=O)O)c2nc(-c3ccc4[nH]c(=O)sc4c3)c(C)c(=O)n2c1 [Compound 945]
18 | B (B denotes 20-fold≥value>5-fold) | 500 to 2000 nM | Cc1cc([C@H](C)Nc2ccccc2C(=O)O)c2nc(-c3ccc4[nH]c(=O)sc4c3)c(C)c(=O)n2c1 [Compound 946]
19 | B (B denotes 20-fold≥value>5-fold) | 500 to 2000 nM | Cc1cc([C@H](C)Nc2ccccc2C(=O)O)c2nc(-c3ccc(F)c(C#N)c3)c(C)c(=O)n2c1 [Compound 948]
20 | C (C denotes ≤5-fold) | > 2000 nM | Cc1cc([C@H](C)Nc2ccccc2C(=O)O)c2nc(-c3cccnc3)c(C)c(=O)n2c1 [Compound 950]
21 | B (B denotes 20-fold≥value>5-fold) | 500 to 2000 nM | Cc1cc([C@H](C)Nc2ccccc2C(=O)O)c2nc(-c3ccnc(C4CC4)c3)c(C)c(=O)n2c1 [Compound 954]
22 | C (C denotes ≤5-fold) | > 2000 nM | Cc1cc([C@H](C)Nc2ccccc2C(=O)C(F)(F)F)c2nc(N3Cc4ccccc4C3)c(C)c(=O)n2c1 [Compound 958]
23 | C (C denotes ≤5-fold) | > 2000 nM | Cc1cc(C(C)Nc2cccc(C#N)c2C(=O)O)c2nc(-c3ccc4c(c3)c(C)nn4C)cc(=O)n2c1 (centres unmarked) [Compound 981]

More lines, now with the values behind:

Row | SMILES | T47D pAKT S473 HTRF IC50 (H1047R): T47D (H1047R) selectivity over SKBR3 (WT) | IC50
24 | Cc1c(N2C[C@@H](C)O[C@@H](C)C2)nc2c([C@@H](C)Nc3ccccc3C(=O)O)cc(C(F)(F)F)cn2c1=O [Compound 907] | C (C denotes ≤5-fold) | 
25 | Cc1cc([C@H](C)Nc2ccccc2-c2ccnnc2)c2nc(N3Cc4ccccc4C3)c(C)c(=O)n2c1 [Compound 909] | C (C denotes ≤5-fold) | > 2000 nM
26 | Cc1cc([C@H](C)Nc2ccccc2C(=O)O)c2ncc(Cc3ccc(F)cc3)c(=O)n2c1 [Compound 914] | C (C denotes ≤5-fold) | > 2000 nM
27 | Cc1cc([C@H](C)Nc2ccccc2C(=O)O)c2nc(-c3ccc4c(c3)c(N(C)C)nn4C)c(C)c(=O)n2c1 [Compound 920] | C (C denotes ≤5-fold) | > 2000 nM
28 | Cc1cc([C@@H](C)Nc2ccccc2C(=O)O)c2nc(-c3ccc4c(C)nn(C)c4c3)c(C)c(=O)n2c1 [Compound 927] | A (A denotes >20-fold) | < 100 nM
29 | Cc1cc([C@H](C)Nc2ccccc2C(=O)O)c2nc(-c3ccc4c(C)nn(C)c4c3)c(C)c(=O)n2c1 [Compound 928] | C (C denotes ≤5-fold) | > 2000 nM
30 | Cc1cc(C(C)Nc2ccccc2S(N)(=O)=O)c2nc(-c3ccc4c(c3)c(C)nn4C3CC3)c(C)c(=O)n2c1 (centres unmarked) [Compound 944] | A (A denotes >20-fold) | 100 to 500 nM
31 | Cc1cc([C@@H](C)Nc2ccccc2C(=O)C(F)(F)F)c2nc(N(C)Cc3ccccc3)c(C)c(=O)n2c1 [Compound 957] | C (C denotes ≤5-fold) | > 2000 nM
32 | Cc1cc([C@@H](C)Nc2ccccc2S(N)(=O)=O)c2nc(-c3ccc4c(c3)c(C)nn4C3CC3)c(C)c(=O)n2c1 [Compound 961] | A (A denotes >20-fold) | 100 to 500 nM
33 | Cc1cc([C@H](C)Nc2ccccc2S(N)(=O)=O)c2nc(-c3ccc4c(c3)c(C)nn4C3CC3)c(C)c(=O)n2c1 [Compound 962] | C (C denotes ≤5-fold) | > 2000 nM
34 | Cc1cc([C@@H](C)Nc2ccccc2C(=O)O)c2nc(-c3cccc(C(F)F)c3)c(C)c(=O)n2c1 [Compound 972, (R)-2-((1-(2-(3-(difluoromethyl)phenyl)-3,7-dimethyl-4-oxo-4H-pyrido[1,2-a]pyrimidin-9-yl)ethyl)amino)benzoic acid] | A (A denotes >20-fold) | < 100 nM
35 | Cc1cc([C@H](C)Nc2ccccc2C(=O)O)c2nc(-c3ccc(C#N)nc3)c(C)c(=O)n2c1 [Compound 976] | C (C denotes ≤5-fold) | > 2000 nM
36 | Cc1cc([C@@H](C)Nc2ccccc2C(=O)O)c2nc(-c3ccc4c(C)cn(C)c4c3)c(C)c(=O)n2c1 [Compound 984] | A (A denotes >20-fold) | < 100 nM
37 | Cc1cc([C@H](C)Nc2ccccc2C(=O)O)c2nc(-c3ccc4c(C)cn(C)c4c3)c(C)c(=O)n2c1 [Compound 985] | C (C denotes ≤5-fold) | > 2000 nM
38 | Cc1cc([C@H](C)Nc2ccccc2S(N)(=O)=O)c2nc(-c3cnc4c(c3)c(C)nn4C)c(C)c(=O)n2c1 [Compound 988] | C (C denotes ≤5-fold) | > 2000 nM
39 | Cc1cc(C(C)Nc2ccccc2S(N)(=O)=O)c2nc(-c3cnc4c(c3)c(C)nn4C3CC3)c(C)c(=O)n2c1 (centres unmarked) [Compound 990] | A (A denotes >20-fold) | 100 to 500 nM
